Reference: patent US20120202847A1, “Novel Tetrahydroisoquinoline Compounds” (priority 2009, published 2012)

Molecular target: T1, DGAT1 enzyme (Homo sapiens, UniProt O75907)
T1 construct: made in house
T1 sequence (O75907 1-488): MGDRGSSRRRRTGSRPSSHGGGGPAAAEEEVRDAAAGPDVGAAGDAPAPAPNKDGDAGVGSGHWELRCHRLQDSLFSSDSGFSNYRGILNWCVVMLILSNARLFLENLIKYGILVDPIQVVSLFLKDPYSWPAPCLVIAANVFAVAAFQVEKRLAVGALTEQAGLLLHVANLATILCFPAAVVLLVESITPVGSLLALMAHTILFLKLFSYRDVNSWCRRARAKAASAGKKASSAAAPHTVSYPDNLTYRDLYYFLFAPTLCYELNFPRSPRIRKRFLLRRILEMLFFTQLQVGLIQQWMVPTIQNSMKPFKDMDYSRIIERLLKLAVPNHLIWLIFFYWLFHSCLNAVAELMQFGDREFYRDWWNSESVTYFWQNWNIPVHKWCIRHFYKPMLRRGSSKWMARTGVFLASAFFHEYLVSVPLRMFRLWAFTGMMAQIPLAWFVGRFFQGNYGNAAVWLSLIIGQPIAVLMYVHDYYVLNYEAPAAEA
Experiment: DGAT1 inhibitory activity test
Type: biochemical
Settings: test compound concentration of 0.05 μg/ml; [14C]-oleoyl-CoA, 23° C., 30 minutes; read-out: Inhibitory Rate
Experimental: (1) Preparation of DGAT1 Enzyme
DGAT1 enzyme was prepared and stored according to the method described in US2007/0249620.
(2) DGAT1 Inhibitory Activity Test
A reaction solution having the following composition was incubated at room temperature (23° C.) for 30 minutes: 175 mM Tris-HCl (pH 8.0), 8 mM MgCl2, 1 mg/ml BSA, 0.3 mM 1,2-dioleoyl-sn-glycerol (10-fold concentration of EtOH solution, 10% added), 10 μM [^14C]-oleoyl-CoA (approximately 50 mCi/mmol), 0.5% Triton X-100, the DGAT1 enzyme (10 μg) obtained in Test Example 1(1), and a test compound or vehicle (DMSO/MeOH, 7:3 solution, 5% added), 50 μl in total. A reaction stop solution […] consisting of isopropanol/1-heptane/water (80:20:2, v/v/v) was added to the reaction solution and stirred. Subsequently, water […] and 1-heptane (100 μl) were added thereto and stirred. The 1-heptane layer […] was spotted onto a TLC plate and developed with a developing solvent consisting of 1-hexane/diethyl ether/acetic acid (85:15:1, v/v/v). The radioactivity of the triglyceride fraction was quantified using BAS2500 Bio Image Analyzer (FUJIFILM) and compared with the control. The inhibitory activity of the test compound was calculated according to the formula shown below. In this context, the radioactivity at no reaction (0 minute incubation) was used as background.
Inhibitory Rate=100−[(Radioactivity of sample supplemented with test compound)−(Background)]/[(Radioactivity of control)−(Background)]×100

Inhibition at 0.05 µg/mL, ≥ 50%:
O=C(O)C[C@H]1CC[C@H](OC(=O)N2CCc3cc(NC(=O)Nc4c(F)cccc4C(F)(F)F)ccc3C2)CC1 [Example 25, trans-6-[3-(2-fluoro-6-trifluoromethyl-phenyl)-ureido]-3,4-dihydro-1H-isoquinoline-2-carboxylic acid 4-carboxymethyl-cyclohexyl ester]
Cc1cc(Cl)ccc1NC(=O)Nc1ccc2c(c1)CCN(C(=O)O[C@H]1CC[C@H](CC(=O)O)CC1)C2 [Example 26]
Cc1cccc(NC(=O)Nc2ccc3c(c2)CCN(C(=O)O[C@H]2CC[C@H](CC(=O)O)CC2)C3)c1Cl [Example 27, trans-6-[3-(2-chloro-3-methyl-phenyl)-ureido]-3,4-dihydro-1H-isoquinoline-2-carboxylic acid 4-carboxymethyl-cyclohexyl ester]
O=C(O)C[C@H]1CC[C@H](OC(=O)N2CCc3cc(NC(=O)Nc4ccc(Cl)cc4C(F)(F)F)ccc3C2)CC1 [Example 28, trans-6-[3-(4-chloro-2-trifluoromethyl-phenyl)-ureido]-3,4-dihydro-1H-isoquinoline-2-carboxylic acid 4-carboxymethyl-cyclohexyl ester]
O=C(O)C[C@H]1CC[C@H](OC(=O)N2CCc3cc(NC(=O)Nc4ccc(C(F)(F)F)cc4Cl)ccc3C2)CC1 [Example 29, trans-6-[3-(2-chloro-4-trifluoromethyl-phenyl)-ureido]-3,4-dihydro-1H-isoquinoline-2-carboxylic acid 4-carboxymethyl-cyclohexyl ester]
Cc1ccc(NC(=O)Nc2ccc3c(c2)CCN(C(=O)O[C@H]2CC[C@H](CC(=O)O)CC2)C3)cc1F [Example 30, trans-6-[3-(3-fluoro-4-methyl-phenyl)-ureido]-3,4-dihydro-1H-isoquinoline-2-carboxylic acid 4-carboxymethyl-cyclohexyl ester]
O=C(O)C[C@H]1CC[C@H](OC(=O)N2CCc3cc(NC(=O)Nc4cc(F)cc(F)c4)ccc3C2)CC1 [Example 31, trans-6-[3-(3,5-difluoro-phenyl)-ureido]-3,4-dihydro-1H-isoquinoline-2-carboxylic acid 4-carboxymethyl-cyclohexyl ester]
O=C(O)C[C@H]1CC[C@H](OC(=O)N2CCc3cc(NC(=O)Nc4ccc(F)c(Cl)c4)ccc3C2)CC1 [Example 32, trans-6-[3-(3-chloro-4-fluoro-phenyl)-ureido]-3,4-dihydro-1H-isoquinoline-2-carboxylic acid 4-carboxymethyl-cyclohexyl ester]
Cc1cc(C)cc(NC(=O)Nc2ccc3c(c2)CCN(C(=O)O[C@H]2CC[C@H](CC(=O)O)CC2)C3)c1 [Example 33, trans-6-[3-(3,5-dimethyl-phenyl)-ureido]-3,4-dihydro-1H-isoquinoline-2-carboxylic acid 4-carboxymethyl-cyclohexyl ester]
Cc1ccc(NC(=O)Nc2ccc3c(c2)CCN(C(=O)O[C@H]2CC[C@H](CC(=O)O)CC2)C3)cc1Cl [Example 34, trans-6-[3-(3-chloro-4-methyl-phenyl)-ureido]-3,4-dihydro-1H-isoquinoline-2-carboxylic acid 4-carboxymethyl-cyclohexyl ester]
Cc1cccc(NC(=O)Nc2ccc3c(c2)CCN(C(=O)O[C@H]2CC[C@H](CC(=O)O)CC2)C3)c1C [Example 35, trans-6-[3-(2,3-dimethyl-phenyl)-ureido]-3,4-dihydro-1H-isoquinoline-2-carboxylic acid 4-carboxymethyl-cyclohexyl ester]
Cc1c(Cl)cccc1NC(=O)Nc1ccc2c(c1)CCN(C(=O)O[C@H]1CC[C@H](CC(=O)O)CC1)C2 [Example 36, trans-6-[3-(3-chloro-2-methyl-phenyl)-ureido]-3,4-dihydro-1H-isoquinoline-2-carboxylic acid 4-carboxymethyl-cyclohexyl ester]
O=C(O)C[C@H]1CC[C@H](OC(=O)N2CCc3cc(NC(=O)Nc4cccc(Cl)c4Cl)ccc3C2)CC1 [Example 37, trans-6-[3-(2,3-dichloro-phenyl)-ureido]-3,4-dihydro-1H-isoquinoline-2-carboxylic acid 4-carboxymethyl-cyclohexyl ester]
Cc1cc(NC(=O)Nc2ccc3c(c2)CCN(C(=O)O[C@H]2CC[C@H](CC(=O)O)CC2)C3)ccc1F [Example 38, trans-6-[3-(4-fluoro-3-methyl-phenyl)-ureido]-3,4-dihydro-1H-isoquinoline-2-carboxylic acid 4-carboxymethyl-cyclohexyl ester]
COc1cc(NC(=O)Nc2ccc3c(c2)CCN(C(=O)O[C@H]2CC[C@H](CC(=O)O)CC2)C3)cc(OC)c1 [Example 39, trans-6-[3-(3,5-dimethoxy-phenyl)-ureido]-3,4-dihydro-1H-isoquinoline-2-carboxylic acid 4-carboxymethyl-cyclohexyl ester]
O=C(O)C[C@H]1CC[C@H](OC(=O)N2CCc3cc(NC(=O)Nc4ccc(Cl)c(Cl)c4)ccc3C2)CC1 [Example 40, trans-6-[3-(3,4-dichloro-phenyl)-ureido]-3,4-dihydro-1H-isoquinoline-2-carboxylic acid 4-carboxymethyl-cyclohexyl ester]
COc1ccc(NC(=O)Nc2ccc3c(c2)CCN(C(=O)O[C@H]2CC[C@H](CC(=O)O)CC2)C3)cc1Cl [Example 41, trans-6-[3-(3-chloro-4-methoxy-phenyl)-ureido]-3,4-dihydro-1H-isoquinoline-2-carboxylic acid 4-carboxymethyl-cyclohexyl ester]
COc1cccc(NC(=O)Nc2ccc3c(c2)CCN(C(=O)O[C@H]2CC[C@H](CC(=O)O)CC2)C3)c1F [Example 42, trans-6-[3-(2-fluoro-3-methoxy-phenyl)-ureido]-3,4-dihydro-1H-isoquinoline-2-carboxylic acid 4-carboxymethyl-cyclohexyl ester]
O=C(O)C[C@H]1CC[C@H](OC(=O)N2CCc3cc(NC(=O)Nc4cc(Cl)cc(Cl)c4)ccc3C2)CC1 [Example 43, trans-6-[3-(3,5-dichloro-phenyl)-ureido]-3,4-dihydro-1H-isoquinoline-2-carboxylic acid 4-carboxymethyl-cyclohexyl ester]
COc1ccc(NC(=O)Nc2ccc3c(c2)CCN(C(=O)O[C@H]2CC[C@H](CC(=O)O)CC2)C3)cc1OC [Example 44, trans-6-[3-(3,4-dimethoxy-phenyl)-ureido]-3,4-dihydro-1H-isoquinoline-2-carboxylic acid 4-carboxymethyl-cyclohexyl ester]
COc1ccc(NC(=O)Nc2ccc3c(c2)CCN(C(=O)O[C@H]2CC[C@H](CC(=O)O)CC2)C3)cc1F [Example 45, trans-6-[3-(3-fluoro-4-methoxy-phenyl)-ureido]-3,4-dihydro-1H-isoquinoline-2-carboxylic acid 4-carboxymethyl-cyclohexyl ester]
O=C(O)C[C@H]1CC[C@H](OC(=O)N2CCc3cc(NC(=O)Nc4cccc(Cl)c4)ccc3C2)CC1 [Example 46, trans-6-[3-(3-chloro-phenyl)-ureido]-3,4-dihydro-1H-isoquinoline-2-carboxylic acid 4-carboxymethyl-cyclohexyl ester]
